# Assay results reported in US20060165827A1, “Anti diarrhoea compositions” (Loders Croklaan USA LLC, priority 2002, published 2006).
# Key:
# growing piglets = assay: Growth, food intake and food conversion of weaned piglets on supplemented feed; assay type: in vivo, pig
# Excerpt: (§1) Evaluate the effect of supplementation with shea sterols on growth and post-weaning diarrhoea of growing piglets.
# (§2) One day before the start of the experiment the pigs are weighed. The piglets are distributed over the different treatment groups with the aim to establish group equality in weight, sex. Piglets smaller than 5 kg or piglets with physical disturbances are excluded from the study.
# (§3) At a mean age of 27 days the pigs are weaned and randomly assigned to the 3 experimental groups and are then treated for 35 days. Pigs are fed ad libitum. The first 14 days post weaning the pigs are fed a prestarter diet. Subsequently, the piglets are changed in a period of 3 days to a starter diet. Throughout the 35 day study period the food is supplemented with either:
# (§4) 1. without antimicrobial growth enhancers
# (§5) 2. with antimicrobial growth enhancers (AMGB: 40 ppm avilamycine)
# (§6) 3. with shea oleine (0.4%)
# (§7) The shea oleine contained 8 wt % sterols and pentacyclic terpenes. The shea oleine was obtained by fractionation of the extract from shea nuts into a stearine and oleine fraction, followed by partial bleaching and deodorising.
# Piglets were weighed at the start of the experiment, at 14 days and at day 34.
# [1] = system: post-weaning diarrhoea of growing piglets; assay: Incidence of post-weaning diarrhoea in weaned piglets on supplemented feed; assay type: in vivo, pig
# Excerpt: as §1, §2, §3, §4, §5, §6, §7
# [2] = from weaning till 14 days post weaning
# [3] = from weaning till 14 days post weaning, p < 0.001
substance,measurement,setting,value
avilamycine [AMGB],EW-conversion,growing piglets; from day 1 till day 34,1.64
same,EW-intake per day,growing piglets; from day 1 till day 34,0.57
same,food conversion,growing piglets; from day 1 till day 34,1.49
same,food intake,growing piglets; from day 1 till day 34,0.52 kg/day
same,growth rate,growing piglets; from day 1 till day 34,352 g/day
same,weight,growing piglets; from day 1 till day 34,20.9 kg
same,EW-conversion,growing piglets; from day 15 till day 34,1.70
same,EW-intake per day,growing piglets; from day 15 till day 34,0.79
same,food conversion,growing piglets; from day 15 till day 34,1.55
same,food intake,growing piglets; from day 15 till day 34,0.72 kg/day
same,growth rate,growing piglets; from day 15 till day 34,468 g/day
same,weight,growing piglets; from day 15 till day 34,10.5 kg
same,EW-conversion,growing piglets; [2],1.43
same,food conversion,growing piglets; [2],1.28
same,growth rate,growing piglets; [2],185 g/day
same,EW-intake per day,growing piglets; [3],0.26
same,food intake,growing piglets; [3],0.23 kg/day
same,weight at weaning,"growing piglets; piglets, at weaning (start of experiment)",7.7 kg
same,Incidence of diarrhoea: no diarrhoea,[1]; First week post-weaning,81.2%
same,Incidence of diarrhoea: past (paste-like) diarrhoea,[1]; First week post-weaning,17.6%
same,Incidence of diarrhoea: watery diarrhoea,[1]; First week post-weaning,1.2%
same,Incidence of diarrhoea: past (paste-like) diarrhoea,[1]; Second week post-weaning,9.5%
same,Incidence of diarrhoea: watery diarrhoea,[1]; Second week post-weaning,0.2%
same,Incidence of diarrhoea: no diarrhoea,"[1]; Second week post-weaning, p < 0.1",90.3%
same,Incidence of diarrhoea: past (paste-like) diarrhoea,[1]; Third week post-weaning,9.0%
same,Incidence of diarrhoea: watery diarrhoea,[1]; Third week post-weaning,0.5%
same,Incidence of diarrhoea: no diarrhoea,"[1]; Third week post-weaning, p < 0.01",90.5%
same,number of animals required treatment,[1]; veterinary treatment during the study,23
